# Source: the kinase profiling compilation of Christmann-Franck et al. (2016)
# Target: ZAP70 (human) (UniProt P43403)
# Assay: radiometric filter-binding kinase assay, Kinase HotSpot
# Conditions: compound 0.5 µM; ATP 10 µM
row,SMILES,residual activity [%]
1,CCOc1cc2ncnc(Nc3cccc(Br)c3)c2cc1OCC,105
2,O=c1[nH]c2ccccc2n1C1CCN(Cc2ccc(-c3nc4cc5[nH]cnc5cc4nc3-c3ccccc3)cc2)CC1,97.3
3,N#CCCc1ccc2c(c1)-c1[nH]c3ccc([N+](=O)[O-])cc3c1CC(=O)N2,106
4,O=C(c1ccccc1)c1ccc(N2CCOCC2)cc1O,95.9
5,c1ccc(-c2cnc(Nc3ccc(OCCN4CCCC4)cc3)s2)cc1,105

# Target: EGFR (human) (UniProt P00533)
# Assay: as above
# Conditions: compound 0.5 µM; ATP 10 µM
row,SMILES,residual activity [%]
1,Cc1cc(Nc2nc(-c3ccccc3)nc3ccccc23)n[nH]1,97.4
2,CCOc1cc2ncnc(Nc3cccc(Br)c3)c2cc1OCC,2.02
3,O=c1[nH]c2ccccc2n1C1CCN(Cc2ccc(-c3nc4cc5[nH]cnc5cc4nc3-c3ccccc3)cc2)CC1,99.8
4,N#CCCc1ccc2c(c1)-c1[nH]c3ccc([N+](=O)[O-])cc3c1CC(=O)N2,94.4
5,O=C(c1ccccc1)c1ccc(N2CCOCC2)cc1O,94.9
6,c1ccc(-c2cnc(Nc3ccc(OCCN4CCCC4)cc3)s2)cc1,98.3

# Target: KDR (human) (UniProt P35968)
# Assay: as above
# Conditions: compound 0.5 µM; ATP 10 µM
# KDR (human), sequence (P35968 whole entry, looked up): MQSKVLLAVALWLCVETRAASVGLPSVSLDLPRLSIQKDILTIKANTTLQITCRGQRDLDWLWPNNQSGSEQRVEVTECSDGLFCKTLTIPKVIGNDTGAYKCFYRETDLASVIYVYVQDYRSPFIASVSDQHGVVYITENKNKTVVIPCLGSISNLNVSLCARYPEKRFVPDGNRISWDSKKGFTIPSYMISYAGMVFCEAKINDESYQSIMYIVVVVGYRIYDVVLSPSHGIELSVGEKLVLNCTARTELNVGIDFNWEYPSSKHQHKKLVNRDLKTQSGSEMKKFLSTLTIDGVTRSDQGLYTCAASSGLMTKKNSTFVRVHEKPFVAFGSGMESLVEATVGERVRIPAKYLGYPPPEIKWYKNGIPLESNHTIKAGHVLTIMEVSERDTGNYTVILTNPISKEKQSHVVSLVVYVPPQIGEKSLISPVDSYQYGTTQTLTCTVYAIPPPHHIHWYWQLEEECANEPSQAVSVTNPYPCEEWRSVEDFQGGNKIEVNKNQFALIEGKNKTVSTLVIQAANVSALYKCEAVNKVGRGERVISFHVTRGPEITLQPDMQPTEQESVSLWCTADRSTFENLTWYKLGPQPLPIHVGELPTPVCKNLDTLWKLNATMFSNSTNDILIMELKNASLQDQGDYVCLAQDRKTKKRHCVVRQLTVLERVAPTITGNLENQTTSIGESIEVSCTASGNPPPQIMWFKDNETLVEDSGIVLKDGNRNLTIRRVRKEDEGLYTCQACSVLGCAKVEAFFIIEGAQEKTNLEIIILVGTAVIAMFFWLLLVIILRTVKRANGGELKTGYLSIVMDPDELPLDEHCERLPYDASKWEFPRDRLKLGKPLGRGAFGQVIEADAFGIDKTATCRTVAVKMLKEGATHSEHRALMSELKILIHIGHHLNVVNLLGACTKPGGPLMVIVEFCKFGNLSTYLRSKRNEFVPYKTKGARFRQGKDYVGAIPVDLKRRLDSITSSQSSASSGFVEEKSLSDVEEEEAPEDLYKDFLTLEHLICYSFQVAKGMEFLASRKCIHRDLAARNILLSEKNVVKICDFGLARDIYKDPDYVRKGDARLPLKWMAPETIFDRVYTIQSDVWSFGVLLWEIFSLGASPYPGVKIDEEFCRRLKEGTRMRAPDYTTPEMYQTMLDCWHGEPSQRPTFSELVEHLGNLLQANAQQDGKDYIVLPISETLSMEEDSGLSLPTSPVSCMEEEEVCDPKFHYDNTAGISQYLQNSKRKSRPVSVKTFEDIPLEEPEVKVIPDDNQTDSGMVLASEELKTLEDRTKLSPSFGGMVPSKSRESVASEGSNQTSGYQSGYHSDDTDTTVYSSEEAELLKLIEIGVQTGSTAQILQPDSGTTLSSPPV
row,SMILES,residual activity [%]
1,Cc1cc(Nc2nc(-c3ccccc3)nc3ccccc23)n[nH]1,36.5
2,CCOc1cc2ncnc(Nc3cccc(Br)c3)c2cc1OCC,92
3,O=c1[nH]c2ccccc2n1C1CCN(Cc2ccc(-c3nc4cc5[nH]cnc5cc4nc3-c3ccccc3)cc2)CC1,90.9
4,N#CCCc1ccc2c(c1)-c1[nH]c3ccc([N+](=O)[O-])cc3c1CC(=O)N2,75.5
5,O=C(c1ccccc1)c1ccc(N2CCOCC2)cc1O,96.8
6,c1ccc(-c2cnc(Nc3ccc(OCCN4CCCC4)cc3)s2)cc1,76.1

# Target: IKBKE (human) (UniProt Q14164)
# Assay: as above
# Conditions: compound 0.5 µM; ATP 10 µM
# IKBKE (human), sequence (Q14164 whole entry, looked up): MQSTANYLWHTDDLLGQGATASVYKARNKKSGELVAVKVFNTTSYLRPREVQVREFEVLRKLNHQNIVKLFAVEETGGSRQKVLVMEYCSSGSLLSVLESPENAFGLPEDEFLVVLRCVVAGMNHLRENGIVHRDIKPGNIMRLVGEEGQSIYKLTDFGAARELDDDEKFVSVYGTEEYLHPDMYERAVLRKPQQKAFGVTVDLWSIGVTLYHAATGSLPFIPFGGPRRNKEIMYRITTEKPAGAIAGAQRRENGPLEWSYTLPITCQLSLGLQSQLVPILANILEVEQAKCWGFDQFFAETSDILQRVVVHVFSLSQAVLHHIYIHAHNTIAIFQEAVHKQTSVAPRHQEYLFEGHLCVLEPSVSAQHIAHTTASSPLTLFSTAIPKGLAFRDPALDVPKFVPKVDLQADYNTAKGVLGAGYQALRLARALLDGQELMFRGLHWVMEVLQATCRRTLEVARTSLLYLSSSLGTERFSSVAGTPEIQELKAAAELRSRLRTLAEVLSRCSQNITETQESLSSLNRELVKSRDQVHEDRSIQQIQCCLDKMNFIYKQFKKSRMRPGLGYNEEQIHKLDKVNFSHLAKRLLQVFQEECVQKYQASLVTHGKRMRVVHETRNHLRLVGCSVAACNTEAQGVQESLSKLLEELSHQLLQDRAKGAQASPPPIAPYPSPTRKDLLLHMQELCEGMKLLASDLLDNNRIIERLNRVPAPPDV
row,SMILES,residual activity [%]
1,Cc1cc(Nc2nc(-c3ccccc3)nc3ccccc23)n[nH]1,67.1
2,CCOc1cc2ncnc(Nc3cccc(Br)c3)c2cc1OCC,98.7
3,O=c1[nH]c2ccccc2n1C1CCN(Cc2ccc(-c3nc4cc5[nH]cnc5cc4nc3-c3ccccc3)cc2)CC1,91.9
4,N#CCCc1ccc2c(c1)-c1[nH]c3ccc([N+](=O)[O-])cc3c1CC(=O)N2,89.2
5,O=C(c1ccccc1)c1ccc(N2CCOCC2)cc1O,101
6,c1ccc(-c2cnc(Nc3ccc(OCCN4CCCC4)cc3)s2)cc1,81.6

# Target: DYRK1B (human) (UniProt Q9Y463)
# Assay: as above
# Conditions: compound 0.5 µM; ATP 10 µM
row,SMILES,residual activity [%]
1,Cc1cc(Nc2nc(-c3ccccc3)nc3ccccc23)n[nH]1,90.8
2,CCOc1cc2ncnc(Nc3cccc(Br)c3)c2cc1OCC,103
3,O=c1[nH]c2ccccc2n1C1CCN(Cc2ccc(-c3nc4cc5[nH]cnc5cc4nc3-c3ccccc3)cc2)CC1,97.9
4,N#CCCc1ccc2c(c1)-c1[nH]c3ccc([N+](=O)[O-])cc3c1CC(=O)N2,76.8
5,O=C(c1ccccc1)c1ccc(N2CCOCC2)cc1O,105
6,c1ccc(-c2cnc(Nc3ccc(OCCN4CCCC4)cc3)s2)cc1,95.4

# Target: RAF1 (human) (UniProt P04049)
# Assay: as above
# Conditions: compound 0.5 µM; ATP 10 µM
row,SMILES,residual activity [%]
1,Cc1cc(Nc2nc(-c3ccccc3)nc3ccccc23)n[nH]1,99.8
2,CCOc1cc2ncnc(Nc3cccc(Br)c3)c2cc1OCC,91.6
3,O=c1[nH]c2ccccc2n1C1CCN(Cc2ccc(-c3nc4cc5[nH]cnc5cc4nc3-c3ccccc3)cc2)CC1,94.7
4,N#CCCc1ccc2c(c1)-c1[nH]c3ccc([N+](=O)[O-])cc3c1CC(=O)N2,104
5,O=C(c1ccccc1)c1ccc(N2CCOCC2)cc1O,95.9
6,c1ccc(-c2cnc(Nc3ccc(OCCN4CCCC4)cc3)s2)cc1,99

# Target: MAP4K5 (human) (UniProt Q9Y4K4)
# Assay: as above
# Conditions: compound 0.5 µM; ATP 10 µM
row,SMILES,residual activity [%]
1,Cc1cc(Nc2nc(-c3ccccc3)nc3ccccc23)n[nH]1,20.2
2,CCOc1cc2ncnc(Nc3cccc(Br)c3)c2cc1OCC,47.7
3,O=c1[nH]c2ccccc2n1C1CCN(Cc2ccc(-c3nc4cc5[nH]cnc5cc4nc3-c3ccccc3)cc2)CC1,91.9
4,N#CCCc1ccc2c(c1)-c1[nH]c3ccc([N+](=O)[O-])cc3c1CC(=O)N2,7.61
5,O=C(c1ccccc1)c1ccc(N2CCOCC2)cc1O,100
6,c1ccc(-c2cnc(Nc3ccc(OCCN4CCCC4)cc3)s2)cc1,72.5

# Target: ABL1 (human) (UniProt P00519)
# Assay: as above
# Conditions: compound 0.5 µM; ATP 10 µM
row,SMILES,residual activity [%]
1,Cc1cc(Nc2nc(-c3ccccc3)nc3ccccc23)n[nH]1,75.4
2,CCOc1cc2ncnc(Nc3cccc(Br)c3)c2cc1OCC,64.3
3,O=c1[nH]c2ccccc2n1C1CCN(Cc2ccc(-c3nc4cc5[nH]cnc5cc4nc3-c3ccccc3)cc2)CC1,98.2
4,N#CCCc1ccc2c(c1)-c1[nH]c3ccc([N+](=O)[O-])cc3c1CC(=O)N2,47.8
5,O=C(c1ccccc1)c1ccc(N2CCOCC2)cc1O,102
6,c1ccc(-c2cnc(Nc3ccc(OCCN4CCCC4)cc3)s2)cc1,63.3

# Target: CDK9 CCNT1 (human) (UniProt P50750+O60563)
# Assay: as above
# Conditions: compound 0.5 µM
# CDK9 CCNT1 (human), sequence (O60563 whole entry, looked up): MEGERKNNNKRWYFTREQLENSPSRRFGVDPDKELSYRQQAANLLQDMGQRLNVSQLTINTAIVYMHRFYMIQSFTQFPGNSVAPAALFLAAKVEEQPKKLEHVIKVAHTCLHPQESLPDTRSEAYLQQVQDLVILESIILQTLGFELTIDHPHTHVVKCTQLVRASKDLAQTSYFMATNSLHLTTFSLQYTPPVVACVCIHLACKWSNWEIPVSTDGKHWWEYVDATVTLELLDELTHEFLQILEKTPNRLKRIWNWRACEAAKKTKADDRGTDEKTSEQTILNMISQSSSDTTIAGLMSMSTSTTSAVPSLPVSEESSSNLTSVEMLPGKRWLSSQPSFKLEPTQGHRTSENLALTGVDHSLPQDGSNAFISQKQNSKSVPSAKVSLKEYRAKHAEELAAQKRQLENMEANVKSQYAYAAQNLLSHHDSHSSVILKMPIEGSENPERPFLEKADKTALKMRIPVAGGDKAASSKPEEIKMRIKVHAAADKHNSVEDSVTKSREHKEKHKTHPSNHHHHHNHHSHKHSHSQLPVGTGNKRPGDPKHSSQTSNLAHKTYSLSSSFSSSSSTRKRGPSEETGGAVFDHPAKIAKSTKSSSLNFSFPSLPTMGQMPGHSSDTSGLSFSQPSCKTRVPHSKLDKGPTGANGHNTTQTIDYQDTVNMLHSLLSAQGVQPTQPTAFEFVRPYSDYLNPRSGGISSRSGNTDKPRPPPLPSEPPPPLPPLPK
# CDK9 CCNT1 (human), sequence (P50750 whole entry, looked up): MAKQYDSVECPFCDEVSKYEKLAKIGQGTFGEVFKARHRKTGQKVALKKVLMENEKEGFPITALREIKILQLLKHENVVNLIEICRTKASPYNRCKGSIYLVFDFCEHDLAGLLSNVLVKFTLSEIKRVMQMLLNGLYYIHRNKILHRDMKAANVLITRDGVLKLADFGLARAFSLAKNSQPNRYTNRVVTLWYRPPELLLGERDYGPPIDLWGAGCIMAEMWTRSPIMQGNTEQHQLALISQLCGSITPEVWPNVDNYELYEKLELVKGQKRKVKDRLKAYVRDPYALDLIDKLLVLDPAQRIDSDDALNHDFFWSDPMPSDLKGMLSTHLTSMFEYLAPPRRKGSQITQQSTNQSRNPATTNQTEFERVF
row,SMILES,residual activity [%]
1,O=c1[nH]c2ccccc2n1C1CCN(Cc2ccc(-c3nc4cc5[nH]cnc5cc4nc3-c3ccccc3)cc2)CC1,93.2

# Same assay, conditions: compound 0.5 µM; ATP 10 µM
row,SMILES,residual activity [%]
1,Cc1cc(Nc2nc(-c3ccccc3)nc3ccccc23)n[nH]1,89.1
2,CCOc1cc2ncnc(Nc3cccc(Br)c3)c2cc1OCC,98.5
3,N#CCCc1ccc2c(c1)-c1[nH]c3ccc([N+](=O)[O-])cc3c1CC(=O)N2,28.6
4,O=C(c1ccccc1)c1ccc(N2CCOCC2)cc1O,97.9
5,c1ccc(-c2cnc(Nc3ccc(OCCN4CCCC4)cc3)s2)cc1,66.1

# Target: JAK3 JH1 JH2 (human) (UniProt P52333)
# Assay: as above
# Conditions: compound 0.5 µM; ATP 10 µM
row,SMILES,residual activity [%]
1,Cc1cc(Nc2nc(-c3ccccc3)nc3ccccc23)n[nH]1,96.7
2,CCOc1cc2ncnc(Nc3cccc(Br)c3)c2cc1OCC,102
3,O=c1[nH]c2ccccc2n1C1CCN(Cc2ccc(-c3nc4cc5[nH]cnc5cc4nc3-c3ccccc3)cc2)CC1,100
4,N#CCCc1ccc2c(c1)-c1[nH]c3ccc([N+](=O)[O-])cc3c1CC(=O)N2,101
5,O=C(c1ccccc1)c1ccc(N2CCOCC2)cc1O,103
6,c1ccc(-c2cnc(Nc3ccc(OCCN4CCCC4)cc3)s2)cc1,108

# Target: CAMK4 (human) (UniProt Q16566)
# Assay: as above
# Conditions: compound 0.5 µM; ATP 10 µM
row,SMILES,residual activity [%]
1,Cc1cc(Nc2nc(-c3ccccc3)nc3ccccc23)n[nH]1,94.1
2,CCOc1cc2ncnc(Nc3cccc(Br)c3)c2cc1OCC,98.7
3,O=c1[nH]c2ccccc2n1C1CCN(Cc2ccc(-c3nc4cc5[nH]cnc5cc4nc3-c3ccccc3)cc2)CC1,101
4,N#CCCc1ccc2c(c1)-c1[nH]c3ccc([N+](=O)[O-])cc3c1CC(=O)N2,98.4
5,O=C(c1ccccc1)c1ccc(N2CCOCC2)cc1O,94.7
6,c1ccc(-c2cnc(Nc3ccc(OCCN4CCCC4)cc3)s2)cc1,97.2

# Target: NEK9 (human) (UniProt Q8TD19)
# Assay: as above
# Conditions: compound 0.5 µM; ATP 10 µM
# NEK9 (human), sequence (Q8TD19 whole entry, looked up): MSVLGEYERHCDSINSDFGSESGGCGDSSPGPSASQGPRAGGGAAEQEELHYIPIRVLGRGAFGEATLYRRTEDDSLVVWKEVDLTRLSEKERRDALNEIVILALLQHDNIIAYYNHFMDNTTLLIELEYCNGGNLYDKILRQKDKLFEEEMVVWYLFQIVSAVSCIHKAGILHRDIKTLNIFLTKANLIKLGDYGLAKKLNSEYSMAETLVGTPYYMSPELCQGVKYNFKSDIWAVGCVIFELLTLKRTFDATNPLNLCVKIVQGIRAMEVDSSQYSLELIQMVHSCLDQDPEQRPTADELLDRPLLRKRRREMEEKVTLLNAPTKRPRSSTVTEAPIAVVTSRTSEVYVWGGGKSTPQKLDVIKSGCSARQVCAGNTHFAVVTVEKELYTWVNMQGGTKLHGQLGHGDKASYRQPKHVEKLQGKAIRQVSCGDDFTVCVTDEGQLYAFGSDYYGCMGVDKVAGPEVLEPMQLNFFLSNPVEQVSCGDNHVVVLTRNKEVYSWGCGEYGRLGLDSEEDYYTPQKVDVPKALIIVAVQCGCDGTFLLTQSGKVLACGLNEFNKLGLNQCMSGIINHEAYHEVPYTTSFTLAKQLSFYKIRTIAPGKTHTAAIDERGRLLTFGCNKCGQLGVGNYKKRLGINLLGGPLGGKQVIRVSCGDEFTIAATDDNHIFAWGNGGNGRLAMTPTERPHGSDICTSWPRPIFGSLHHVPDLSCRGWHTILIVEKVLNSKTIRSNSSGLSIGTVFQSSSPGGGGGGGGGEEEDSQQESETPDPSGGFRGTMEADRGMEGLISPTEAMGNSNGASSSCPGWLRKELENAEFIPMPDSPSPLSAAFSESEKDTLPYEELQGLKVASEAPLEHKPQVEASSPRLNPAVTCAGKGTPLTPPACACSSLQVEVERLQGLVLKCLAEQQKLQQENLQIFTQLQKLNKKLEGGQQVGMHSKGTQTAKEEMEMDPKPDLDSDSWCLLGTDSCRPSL
row,SMILES,residual activity [%]
1,Cc1cc(Nc2nc(-c3ccccc3)nc3ccccc23)n[nH]1,79.9
2,CCOc1cc2ncnc(Nc3cccc(Br)c3)c2cc1OCC,96.7
3,O=c1[nH]c2ccccc2n1C1CCN(Cc2ccc(-c3nc4cc5[nH]cnc5cc4nc3-c3ccccc3)cc2)CC1,99.2
4,N#CCCc1ccc2c(c1)-c1[nH]c3ccc([N+](=O)[O-])cc3c1CC(=O)N2,103
5,O=C(c1ccccc1)c1ccc(N2CCOCC2)cc1O,103
6,c1ccc(-c2cnc(Nc3ccc(OCCN4CCCC4)cc3)s2)cc1,101

# Target: AXL (human) (UniProt P30530)
# Assay: as above
# Conditions: compound 0.5 µM; ATP 10 µM
row,SMILES,residual activity [%]
1,Cc1cc(Nc2nc(-c3ccccc3)nc3ccccc23)n[nH]1,101
2,CCOc1cc2ncnc(Nc3cccc(Br)c3)c2cc1OCC,89.9
3,O=c1[nH]c2ccccc2n1C1CCN(Cc2ccc(-c3nc4cc5[nH]cnc5cc4nc3-c3ccccc3)cc2)CC1,105
4,N#CCCc1ccc2c(c1)-c1[nH]c3ccc([N+](=O)[O-])cc3c1CC(=O)N2,95.5
5,O=C(c1ccccc1)c1ccc(N2CCOCC2)cc1O,95.1
6,c1ccc(-c2cnc(Nc3ccc(OCCN4CCCC4)cc3)s2)cc1,97.1

# Target: CDK2 CCNA2 (human) (UniProt P24941+P20248)
# Assay: as above
# Conditions: compound 0.5 µM
row,SMILES,residual activity [%]
1,O=c1[nH]c2ccccc2n1C1CCN(Cc2ccc(-c3nc4cc5[nH]cnc5cc4nc3-c3ccccc3)cc2)CC1,98

# Same assay, conditions: compound 0.5 µM; ATP 10 µM
row,SMILES,residual activity [%]
1,Cc1cc(Nc2nc(-c3ccccc3)nc3ccccc23)n[nH]1,96.9
2,CCOc1cc2ncnc(Nc3cccc(Br)c3)c2cc1OCC,91.9
3,N#CCCc1ccc2c(c1)-c1[nH]c3ccc([N+](=O)[O-])cc3c1CC(=O)N2,2.93
4,O=C(c1ccccc1)c1ccc(N2CCOCC2)cc1O,99.3
5,c1ccc(-c2cnc(Nc3ccc(OCCN4CCCC4)cc3)s2)cc1,85.2

# Target: MINK1 (human) (UniProt Q8N4C8)
# Assay: as above
# Conditions: compound 0.5 µM; ATP 10 µM
row,SMILES,residual activity [%]
1,Cc1cc(Nc2nc(-c3ccccc3)nc3ccccc23)n[nH]1,35.6
2,CCOc1cc2ncnc(Nc3cccc(Br)c3)c2cc1OCC,77.8
3,O=c1[nH]c2ccccc2n1C1CCN(Cc2ccc(-c3nc4cc5[nH]cnc5cc4nc3-c3ccccc3)cc2)CC1,103
4,N#CCCc1ccc2c(c1)-c1[nH]c3ccc([N+](=O)[O-])cc3c1CC(=O)N2,29.9
5,O=C(c1ccccc1)c1ccc(N2CCOCC2)cc1O,91.1
6,c1ccc(-c2cnc(Nc3ccc(OCCN4CCCC4)cc3)s2)cc1,38.7

# Target: PRKD1 (human) (UniProt Q15139)
# Assay: as above
# Conditions: compound 0.5 µM; ATP 10 µM
row,SMILES,residual activity [%]
1,Cc1cc(Nc2nc(-c3ccccc3)nc3ccccc23)n[nH]1,77.4
2,CCOc1cc2ncnc(Nc3cccc(Br)c3)c2cc1OCC,95.4
3,O=c1[nH]c2ccccc2n1C1CCN(Cc2ccc(-c3nc4cc5[nH]cnc5cc4nc3-c3ccccc3)cc2)CC1,94.7
4,N#CCCc1ccc2c(c1)-c1[nH]c3ccc([N+](=O)[O-])cc3c1CC(=O)N2,87.5
5,O=C(c1ccccc1)c1ccc(N2CCOCC2)cc1O,102
6,c1ccc(-c2cnc(Nc3ccc(OCCN4CCCC4)cc3)s2)cc1,78.4

# Target: BMX (human) (UniProt P51813)
# Assay: as above
# Conditions: compound 0.5 µM; ATP 10 µM
# BMX (human), sequence (P51813 whole entry, looked up): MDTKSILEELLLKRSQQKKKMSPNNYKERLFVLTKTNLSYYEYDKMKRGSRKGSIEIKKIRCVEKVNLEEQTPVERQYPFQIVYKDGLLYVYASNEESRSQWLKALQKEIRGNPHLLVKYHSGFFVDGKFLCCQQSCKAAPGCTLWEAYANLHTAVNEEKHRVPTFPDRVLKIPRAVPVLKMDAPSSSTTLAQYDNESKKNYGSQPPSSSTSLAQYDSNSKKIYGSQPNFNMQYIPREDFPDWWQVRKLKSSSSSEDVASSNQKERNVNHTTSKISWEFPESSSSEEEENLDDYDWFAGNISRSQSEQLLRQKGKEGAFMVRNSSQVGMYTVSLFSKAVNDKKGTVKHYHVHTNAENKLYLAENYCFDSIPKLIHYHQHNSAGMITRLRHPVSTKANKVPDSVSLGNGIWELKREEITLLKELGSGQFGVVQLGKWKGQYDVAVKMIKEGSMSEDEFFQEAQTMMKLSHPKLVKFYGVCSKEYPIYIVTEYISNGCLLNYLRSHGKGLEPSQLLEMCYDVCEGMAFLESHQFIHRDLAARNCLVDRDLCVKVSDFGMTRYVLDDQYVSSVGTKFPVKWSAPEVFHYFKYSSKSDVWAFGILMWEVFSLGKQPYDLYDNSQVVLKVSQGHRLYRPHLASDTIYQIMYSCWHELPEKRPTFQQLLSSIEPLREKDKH
row,SMILES,residual activity [%]
1,Cc1cc(Nc2nc(-c3ccccc3)nc3ccccc23)n[nH]1,41.1
2,CCOc1cc2ncnc(Nc3cccc(Br)c3)c2cc1OCC,95.5
3,O=c1[nH]c2ccccc2n1C1CCN(Cc2ccc(-c3nc4cc5[nH]cnc5cc4nc3-c3ccccc3)cc2)CC1,108
4,N#CCCc1ccc2c(c1)-c1[nH]c3ccc([N+](=O)[O-])cc3c1CC(=O)N2,99.5
5,O=C(c1ccccc1)c1ccc(N2CCOCC2)cc1O,90.4
6,c1ccc(-c2cnc(Nc3ccc(OCCN4CCCC4)cc3)s2)cc1,84.5

# Target: TSSK2 (human) (UniProt Q96PF2)
# Assay: as above
# Conditions: compound 0.5 µM; ATP 10 µM
row,SMILES,residual activity [%]
1,Cc1cc(Nc2nc(-c3ccccc3)nc3ccccc23)n[nH]1,105
2,CCOc1cc2ncnc(Nc3cccc(Br)c3)c2cc1OCC,104
3,O=c1[nH]c2ccccc2n1C1CCN(Cc2ccc(-c3nc4cc5[nH]cnc5cc4nc3-c3ccccc3)cc2)CC1,96.2
4,N#CCCc1ccc2c(c1)-c1[nH]c3ccc([N+](=O)[O-])cc3c1CC(=O)N2,78.7
5,O=C(c1ccccc1)c1ccc(N2CCOCC2)cc1O,104
6,c1ccc(-c2cnc(Nc3ccc(OCCN4CCCC4)cc3)s2)cc1,89
